Experimental findings from PubChem BioAssay AID256 (DTP/NCI, 2004) are described below.

“And” between values parts separate entries of the source, which are not always exact repeats. Equal entries are not always repeated. Toxic doses and inconclusive results are not listed.

In the assay the test system is CD2F1 mice, L1210 leukemia ip, survival T/C. As to the kind of experiment: NCI In Vivo Anticancer Drug Screen. Data for tumor model L1210 Leukemia (intraperitoneal) in CD2F1 (CDF1) mice. As to conditions: higher = longer survival. Summed up: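 Implant tumor; dose compound or vehicle; measure endpoint in both groups; report treated divided by control.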
[1] abbreviates: endpoint: mean survival time, dose: 100.0 mg/kg/injection, schedule: Q01DX009 (ip), vehicle: saline with Tween-80.
The mark [2] stands for this setting: endpoint: mean survival time, dose: 200.0 mg/kg/injection, schedule: Q01DX009 (ip), vehicle: saline with Tween-80.
Where [3] appears, read: endpoint: mean survival time, dose: 400.0 mg/kg/injection, schedule: Q01DX009 (ip), vehicle: saline with Tween-80.
The mark [4] stands for this setting: endpoint: mean survival time, dose: 100.0 mg/kg/injection, schedule: Q01DX001 (ip), vehicle: saline with Tween-80.
The mark [5] stands for this setting: endpoint: mean survival time, dose: 200.0 mg/kg/injection, schedule: Q01DX001 (ip), vehicle: saline with Tween-80.
Where [6] appears, read: endpoint: mean survival time, dose: 400.0 mg/kg/injection, schedule: Q01DX001 (ip), vehicle: saline with Tween-80.

Regarding `N#CC(C#N)=NNc1ccc(S(=O)(=O)c2ccc(NN=C(C#N)C#N)cc2)cc1`, the T/C is 103 % of control under setting [1], 100 % of control under setting [2] and 103 % of control under setting [3].
Consider `O=c1cc(-c2ccccc2)[nH]c(=S)[nH]1`, for which the T/C reads like this: under setting [4], 115 % of control; under setting [5], 102 % of control; under setting [6], 97 % of control.
Take `CC(=O)Nc1ncc2ccccc2c1-c1ccc(N(CCCl)CCCl)cc1`: the T/C by setting is: (endpoint: mean survival time, dose: 25.0 mg/kg/injection, schedule: Q04DX003 (ip), vehicle: DMSO) 105 % of control; (endpoint: mean survival time, dose: 50.0 mg/kg/injection, schedule: Q04DX003 (ip), vehicle: DMSO) 94 % of control; (endpoint: mean survival time, dose: 50.0 mg/kg/injection, schedule: Q04DX003 (ip), vehicle: Klucel (hydroxypropylcellulose) (HPC)) 95 % of control; (endpoint: mean survival time, dose: 100.0 mg/kg/injection, schedule: Q04DX003 (ip), vehicle: DMSO) 111 % of control; (endpoint: mean survival time, dose: 100.0 mg/kg/injection, schedule: Q04DX003 (ip), vehicle: Klucel (hydroxypropylcellulose) (HPC)) 104 % of control; (endpoint: mean survival time, dose: 100.0 mg/kg/injection, schedule: Q04DX003 (ip), vehicle: saline + alcohol) 92 % of control. For the same compound, the T/C is 101 % of control (endpoint: mean survival time, dose: 200.0 mg/kg/injection, schedule: Q04DX003 (ip), vehicle: Klucel (hydroxypropylcellulose) (HPC)); 101 % of control (endpoint: mean survival time, dose: 200.0 mg/kg/injection, schedule: Q04DX003 (ip), vehicle: saline + alcohol); 150 % of control (endpoint: mean survival time, dose: 400.0 mg/kg/injection, schedule: Q04DX003 (ip), vehicle: DMSO); 104 % of control (endpoint: mean survival time, dose: 400.0 mg/kg/injection, schedule: Q04DX003 (ip), vehicle: Klucel (hydroxypropylcellulose) (HPC)); 97 % of control (endpoint: mean survival time, dose: 400.0 mg/kg/injection, schedule: Q04DX003 (ip), vehicle: saline + alcohol).
Take `CC/C=C/CC(=O)NCc1ccc(O)c(OC)c1`: the T/C by setting is: under setting [4], 101 % of control; under setting [5], 103 % of control.
In the case of `O=c1cc(O)cnn1C1OC(CO)C(O)C1O` (stereo unspecified), the T/C (endpoint: mean survival time, dose: 25.0 mg/kg/injection, schedule: Q01DX009 (ip), vehicle: water) was 118 % of control and 110 % of control; the T/C (endpoint: mean survival time, dose: 50.0 mg/kg/injection, schedule: Q01DX009 (ip), vehicle: water) was 114 % of control and 117 % of control and 112 % of control; the T/C (endpoint: mean survival time, dose: 100.0 mg/kg/injection, schedule: Q01DX009 (ip), vehicle: water) is 118 % of control (2×) and 108 % of control; the T/C (endpoint: mean survival time, dose: 200.0 mg/kg/injection, schedule: Q01DX009 (ip), vehicle: water) was 117 % of control and 108 % of control; the T/C (endpoint: mean survival time, dose: 400.0 mg/kg/injection, schedule: Q01DX009 (ip), vehicle: water) was 119 % of control.
As for `CCOC(=O)NC(CCl)C(=O)OC` (stereo unspecified), the T/C runs as follows: under setting [1], 104 % of control; under setting [2], 98 % of control; under setting [3], 98 % of control.
On to `O=[N+]([O-])c1ccc(N=Cc2ccc3c(c2)OCO3)c(Br)c1`, for which the T/C (endpoint: mean survival time, dose: 100.0 mg/kg/injection, schedule: Q01DX009 (ip), vehicle: Klucel (hydroxypropylcellulose) (HPC)) is 108 % of control; the T/C (endpoint: mean survival time, dose: 100.0 mg/kg/injection, schedule: Q04DX003 (ip), vehicle: other) is 108 % of control; the T/C (endpoint: mean survival time, dose: 200.0 mg/kg/injection, schedule: Q01DX009 (ip), vehicle: Klucel (hydroxypropylcellulose) (HPC)) is 109 % of control; the T/C (endpoint: mean survival time, dose: 200.0 mg/kg/injection, schedule: Q04DX003 (ip), vehicle: other) is 103 % of control; the T/C (endpoint: mean survival time, dose: 400.0 mg/kg/injection, schedule: Q01DX009 (ip), vehicle: Klucel (hydroxypropylcellulose) (HPC)) was 109 % of control; the T/C (endpoint: mean survival time, dose: 400.0 mg/kg/injection, schedule: Q04DX003 (ip), vehicle: other) is 103 % of control.
Regarding `CCC(CC(N)=O)C(C#N)(C#N)C(N)=O` (stereo unspecified), the T/C is, setting by setting: under setting [4], 100 % of control; under setting [5], 98 % of control; under setting [6], 98 % of control.
Consider `CCOc1ccc(Br)cc1/C=C(\C#N)c1ccc([N+](=O)[O-])cc1`, for which the T/C is 98 % of control (endpoint: mean survival time, dose: 0.1 mg/kg/injection, schedule: Q01DX009 (ip), vehicle: saline with Tween-80); 97 % of control (endpoint: mean survival time, dose: 0.2 mg/kg/injection, schedule: Q01DX009 (ip), vehicle: saline with Tween-80); 93 % of control (endpoint: mean survival time, dose: 0.39 mg/kg/injection, schedule: Q01DX009 (ip), vehicle: saline with Tween-80); 90 % of control (endpoint: mean survival time, dose: 0.4 mg/kg/injection, schedule: Q01DX009 (ip), vehicle: saline with Tween-80); 87 % of control (endpoint: mean survival time, dose: 12.5 mg/kg/injection, schedule: Q04DX003 (ip), vehicle: saline with Tween-80); 89 % of control (endpoint: mean survival time, dose: 25.0 mg/kg/injection, schedule: Q04DX003 (ip), vehicle: saline with Tween-80). Besides, the T/C (endpoint: mean survival time, dose: 50.0 mg/kg/injection, schedule: Q04DX003 (ip), vehicle: saline with Tween-80) was 86 % of control.
With `COC1=CCC(=Nc2ccccc2)C=C1`, the T/C runs as follows: under setting [4], 96 % of control; under setting [5], 102 % of control; under setting [6], 95 % of control.
Turning to `O=C[C@@H](CO)O[C@H](C=O)n1cnc2c(=O)[nH]cnc21`, the T/C was 111 % of control (endpoint: mean survival time, dose: 20.0 mg/kg/injection, schedule: Q01DX009 (ip), vehicle: saline); 115 % of control (endpoint: mean survival time, dose: 40.0 mg/kg/injection, schedule: Q01DX009 (ip), vehicle: saline); 114 % of control (endpoint: mean survival time, dose: 50.0 mg/kg/injection, schedule: Q04DX003 (ip), vehicle: saline); 110 % of control (endpoint: mean survival time, dose: 70.0 mg/kg/injection, schedule: Q01DX001 (ip), vehicle: saline); 160 % of control (endpoint: mean survival time, dose: 80.0 mg/kg/injection, schedule: Q01DX009 (ip), vehicle: saline); 156 % of control (endpoint: mean survival time, dose: 100.0 mg/kg/injection, schedule: Q01DX007 (ip), vehicle: saline). The T/C runs as follows: (endpoint: mean survival time, dose: 140.0 mg/kg/injection, schedule: Q01DX001 (ip), vehicle: saline) 124 % of control; (endpoint: mean survival time, dose: 160.0 mg/kg/injection, schedule: Q01DX009 (ip), vehicle: saline) 177 % of control and 182 % of control; (endpoint: mean survival time, dose: 200.0 mg/kg/injection, schedule: Q01DX007 (ip), vehicle: saline) 150 % of control; (endpoint: mean survival time, dose: 200.0 mg/kg/injection, schedule: Q01DX009 (ip), vehicle: saline) 287 % of control; (endpoint: mean survival time, dose: 200.0 mg/kg/injection, schedule: Q03DX003 (ip), vehicle: saline) 162 % of control; (endpoint: mean survival time, dose: 200.0 mg/kg/injection, schedule: Q04DX003 (ip), vehicle: saline) 158 % of control. Also, the T/C reads like this: (endpoint: median survival time, dose: 38.9 mg/kg/injection, schedule: Q01DX005 (ip), vehicle: saline) 122 % of control; (endpoint: median survival time, dose: 39.0 mg/kg/injection, schedule: Q01DX009 (ip), vehicle: clinical formulation) 122 % of control; (endpoint: median survival time, dose: 50.0 mg/kg/injection, schedule: Q01DX005 (ip), vehicle: distilled water + Tween-80) 118 % of control; (endpoint: median survival time, dose: 89.0 mg/kg/injection, schedule: Q01DX009 (ip), vehicle: clinical formulation) 173 % of control; (endpoint: median survival time, dose: 89.0 mg/kg/injection, schedule: Q01DX009 (ip), vehicle: sodium bicarbonate) 171 % of control; (endpoint: median survival time, dose: 133.0 mg/kg/injection, schedule: Q01DX009 (ip), vehicle: clinical formulation) 105 % of control. The T/C was 163 % of control (endpoint: median survival time, dose: 133.0 mg/kg/injection, schedule: Q01DX009 (ip), vehicle: sodium bicarbonate); 170 % of control (endpoint: median survival time, dose: 180.0 mg/kg/injection, schedule: Q01DX005 (ip), vehicle: saline); 196 % of control (endpoint: median survival time, dose: 200.0 mg/kg/injection, schedule: Q01DX005 (ip), vehicle: distilled water + Tween-80); 238 % of control (endpoint: median survival time, dose: 300.0 mg/kg/injection, schedule: Q01DX005 (ip), vehicle: saline).
Turning to `Cc1ccc(S(=O)(=O)OC2CC3CCC2C3)cc1` (stereo unspecified), the T/C reads like this: (endpoint: mean survival time, dose: 100.0 mg/kg/injection, schedule: Q04DX003 (ip), vehicle: acetone) 105 % of control; (endpoint: mean survival time, dose: 200.0 mg/kg/injection, schedule: Q04DX003 (ip), vehicle: acetone) 101 % of control; (endpoint: mean survival time, dose: 400.0 mg/kg/injection, schedule: Q04DX003 (ip), vehicle: acetone) 100 % of control.
For the compound `O=C(Nc1ccc2c3c(cccc13)CC2)c1cccc([N+](=O)[O-])c1`, the T/C by setting is: under setting [1], 94 % of control; under setting [2], 95 % of control; under setting [3], 97 % of control.
`CCN(CC)CCCNc1ncnc(Cl)c1C(=C(C)C)c1ccccc1`: the T/C by setting is: (endpoint: mean survival time, dose: 100.0 mg/kg/injection, schedule: Q01DX001 (ip), vehicle: saline) 97 % of control; (endpoint: mean survival time, dose: 200.0 mg/kg/injection, schedule: Q01DX001 (ip), vehicle: saline) 105 % of control.
